Here are results for 21 compounds from patent US10781215B2, “Heterobicyclic compounds useful as modulators of IL-12, IL-23 and/or IFNα responses” (BRISTOL-MYERS SQUIBB COMPANY, priority 2016, dated 2020).

Assay [1] has as its target T1, recombinant human His-tagged Tyk2 pseudokinase domain (His-TVMV-Tyk2, 575-869) (Homo sapiens, UniProt P29597).
T1 construct: made in house
The experiment in a line: Probe displacement assay (HTRF format). It is filed as binding. Conditions: fluorescein labeled probe, Tyk2 pseudokinase domain 0.5 nM. As for the experimental part: To 10 μL 26 nM fluorescein labeled probe plus 0.2 nM anti-6×His-terbium labeled antibody (Medarex, labeled by Cisbio) in assay buffer (20 mM Hepes pH 7.5, 150 mM NaCl, 10 mM MgCl2, 2 mM DTT, 50 μg/mL BSA, and 0.015% Brij 35) was added 10 μL recombinant human His-tagged Tyk2 pseudokinase domain (His-TVMV-Tyk2, 575-869) to a final concentration of 0.5 nM. After 1 h at room temperature, the HTRF signal (ratio of fluorescence intensities at emission wavelengths for fluorescein acceptor at 520 nm and terbium donor at 495 nm) was measured on an Envision Plate Reader. Percent inhibition was calculated by comparison to a control without inhibitor and a control without protein. Dose response curves were generated to determine the concentration required for inhibiting 50% of the HTRF signal (EC50).
Background: In TR-FRET formats the signal depends on donor and acceptor labels being close together.

Assay [2] deals with IL-23 stimulated Kit225 T cells (STAT-dependent luciferase reporter). The experiment in a line: Kit225 T cell assay, IL-23 stimulated STAT-dependent luciferase reporter. It is filed as cell-based. Conditions: 20 ng/mL human recombinant IL-23, 5-6 hours. Here is the method: (§1) Kit225 T cells with a stably-integrated STAT-dependent luciferase reporter were plated in RPMI (Gibco) containing 10% heat-inactivated FBS (Gibco) and 100 U/mL PenStrep (Gibco). The cells were then stimulated with either 20 ng/mL human recombinant IL-23 or 200 U/mL human recombinant IFNα (PBL InterferonSource) for 5-6 hours. Luciferase expression was measured using the STEADY-GLO® Luciferase Assay System (Promega) according to the manufacturer's instructions. Inhibition data were calculated by comparison to no inhibitor control wells for 0% inhibition and non-stimulated control wells for 100% inhibition. Dose response curves were generated to determine the concentration required to inhibit 50% of cellular response (IC50) as derived by non-linear regression analysis.

Assay [3] relates to IFNα stimulated Kit225 T cells (STAT-dependent luciferase reporter). As to the kind of experiment: Kit225 T cell assay, IFNα stimulated STAT-dependent luciferase reporter. It is filed as cell-based. Conditions: 200 U/mL human recombinant IFNα, 5-6 hours. Here is the method:
as §1

The target in assay [4] is T2, human Tyk2 (amino acids 575-869, His-tagged) (Homo sapiens, UniProt P29597).
T2 construct: made in house
The experiment in a line: Probe displacement assay (SPA format). It is filed as binding. Conditions: radiolabeled probe 40 nM, Tyk2 2.5 nM. As for the experimental part: Probe Displacement Assay (SPA Format) The probe displacement assay is conducted as follows: In a […], test compounds along with recombinantly expressed His-tagged protein corresponding to amino acids 575-869 of human Tyk2 (sequence shown below) at 2.5 nM, 40 nM ((R)—N-(1-(3-(8-methyl-5-(methylamino)-8H-imidazo [4,5-d]thiazolo [5,4-b]pyridin-2-yl)phenyl)ethyl)-2-([^3H]methylsulfonyl)benzamide) (preparation described below) and 80 μg/mL Copper His-Tag scintillation proximity assay beads (Perkin Elmer, Catalog # RPNQ0095) in 50 mM HEPES, pH 7.5, containing 100 μg/mL bovine serum albumin and 5% DMSO were incubated for 30 minutes at room temperature. The amount of radiolabeled probe (preparation described below) bound to Tyk2 was then quantified by scintillation counting, and the inhibition by the test compound calculated by comparison to wells either with no inhibitor (0% inhibition) or without Tyk2 (100% inhibition). The EC50 value is defined as the concentration of test compound required to inhibit radiolabeled probe binding by 50%. Probe Displacement Assay (HTRF Format)

T2 sequence (P29597 with tags, fused parts or gaps): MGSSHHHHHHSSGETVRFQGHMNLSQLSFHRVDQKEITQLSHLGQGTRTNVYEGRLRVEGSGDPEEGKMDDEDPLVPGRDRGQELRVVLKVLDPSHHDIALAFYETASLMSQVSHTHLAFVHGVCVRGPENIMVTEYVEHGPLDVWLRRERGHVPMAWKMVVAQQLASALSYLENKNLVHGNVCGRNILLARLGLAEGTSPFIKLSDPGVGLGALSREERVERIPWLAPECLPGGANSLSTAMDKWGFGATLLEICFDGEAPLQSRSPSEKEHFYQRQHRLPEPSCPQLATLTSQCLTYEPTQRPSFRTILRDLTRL
T1 sequence (P29597 with tags, fused parts or gaps): as above

One may read the EC50 as the midpoint of the concentration-response curve. Usually IC50 stands for the concentration that inhibits the measured activity by half. Regarding `Cc1nc2c(Nc3ncccc3S(C)(=O)=O)cc(Nc3cc(F)ccn3)nc2[nH]1` [Example 43, 5-N-(4-fluoropyridin-2-yl)-7-N-(3-methanesulfonylpyridin-2-yl)-2-methyl-3H-imidazo[4,5-b]pyridine-5,7-diamine], in assay [1], the EC50 amounted to 0.8 nM. The IC50 in assay [2] stood at 53 nM; in assay [3] it was 45 nM.
`Cc1ccnc(Nc2cc(Nc3ncccc3S(C)(=O)=O)c3nc(C)[nH]c3n2)c1` [Example 46, 7-N-(3-methanesulfonylpyridin-2-yl)-2-methyl-5-N-(4-methylpyridin-2-yl)-3H-imidazo[4,5-b]pyridine-5,7-diamine]: the EC50 in assay [1] stood at 1.8 nM. In addition, the 50% inhibitory concentration (IC50) in assay [2] came to 2980 nM; in assay [3], 323 nM.
On to `Cc1nc2c(Nc3ccccc3S(C)(=O)=O)cc(Nc3ccc(C#N)c(C)n3)nc2[nH]1` [Example 25, 6-({7-[(2-methanesulfonylphenyl)amino]-2-methyl-3H-imidazo[4,5-b]pyridin-5-yl}amino)-2-methylpyridine-3-carbonitrile], for which the concentration for half-maximal inhibition (IC50) was determined as 205 nM in assay [2] and 126 nM in assay [3]. In addition, the EC50 in assay [4] came out at 7 nM.
Take `Cc1nc2c(Nc3ccccc3S(C)(=O)=O)cc(NC(=O)C3CC3)nc2[nH]1` [Example 7, N-{7-[(2-methanesulfonylphenyl)amino]-2-methyl-3H-imidazo[4,5-b]pyridin-5-yl}cyclopropanecarboxamide]: the results for the IC50 in assay [2] and in assay [3] were 718 nM and 285 nM, respectively. In addition, a half-maximal response in assay [4] (EC50) required 14 nM.
In the same order, the values of `Cc1cc(Nc2cc(Nc3ccccc3S(C)(=O)=O)c3nc(C)[nH]c3n2)nc(C)n1` [Example 4, 5-N-(2,6-dimethylpyrimidin-4-yl)-7-N-(2-methanesulfonylphenyl)-2-methyl-3H-imidazo[4,5-b]pyridine-5,7-diamine] are 347 nM, 196 nM and 12 nM.
Turning to `COc1ccnc(Nc2cc(Nc3ccccc3S(C)(=O)=O)c3nc(C)[nH]c3n2)c1` [Example 18, 7-N-(2-methanesulfonylphenyl)-5-N-(4-methoxypyridin-2-yl)-2-methyl-3H-imidazo[4,5-b]pyridine-5,7-diamine], the half-maximal inhibitory concentration (IC50) in assay [2] was 2400 nM; in assay [3], 3620 nM. The same compound showed an EC50 in assay [4] of 240 nM.
On to `COc1ccc(Nc2cc(Nc3ccccc3S(C)(=O)=O)c3nc(C)[nH]c3n2)nn1` [Example 19, 7-N-(2-methanesulfonylphenyl)-5-N-(6-methoxypyridazin-3-yl)-2-methyl-3H-imidazo[4,5-b]pyridine-5,7-diamine], for which the IC50 in assay [2] was determined as 480 nM; in assay [3], 732 nM. Besides, the EC50 in assay [4] turned out to be 19 nM.
In the same order, the values of `Cc1cnc(Nc2cc(Nc3ccccc3S(C)(=O)=O)c3nc(C)[nH]c3n2)cn1` [Example 15, 7-N-(2-methanesulfonylphenyl)-2-methyl-5-N-(5-methylpyrazin-2-yl)-3H-imidazo[4,5-b]pyridine-5,7-diamine] are 183 nM, 207 nM and 31 nM.
In the same order, the values of `CCc1nc2c(Nc3ccccc3S(C)(=O)=O)cc(Nc3cc(C)nc(C)n3)nc2[nH]1` [Example 52, 5-N-(2,6-dimethylpyrimidin-4-yl)-2-ethyl-7-N-(2-methanesulfonylphenyl)-3H-imidazo[4,5-b]pyridine-5,7-diamine] are 1410 nM, 4260 nM and 107 nM.
Taken in the same sequence, the figures for `Cc1nc2c(Nc3ccccc3S(C)(=O)=O)cc(Nc3ccc(F)cn3)nc2[nH]1` [Example 2, N5-(5-fluoropyridin-2-yl)-2-methyl-N7-(2-(methylsulfonyl)phenyl)-3H-imidazo[4,5-b]pyridine-5,7-diamine] were 162 nM, 88 nM and 13 nM.
Consider `Cc1cccc(Nc2cc(Nc3ccccc3S(C)(=O)=O)c3nc(C)[nH]c3n2)n1` [Example 29, 7-N-(2-methanesulfonylphenyl)-2-methyl-5-N-(6-methylpyridin-2-yl)-3H-imidazo[4,5-b]pyridine-5,7-diamine], for which the concentration for half-maximal inhibition (IC50) in assay [2] is 21 nM; in assay [3] it was 35 nM. Besides, the midpoint of the response in assay [4], the EC50, lay at 6 nM.
For `Cc1nc2c(Nc3ccccc3S(C)(=O)=O)cc(Nc3ccc(N4CCOCC4)cn3)nc2[nH]1` [Example 5, 7-N-(2-methanesulfonylphenyl)-2-methyl-5-N-[5-(morpholin-4-yl)pyridin-2-yl]-3H-imidazo[4,5-b]pyridine-5,7-diamine], the 50% inhibitory concentration (IC50) in assay [2] came to 190 nM; in assay [3], 161 nM. The compound further yielded an EC50 in assay [4] of 11 nM.
Take `Cc1nc2c(Nc3ccccc3S(C)(=O)=O)cc(Nc3ccc(N4CCCC4=O)cn3)nc2[nH]1` [Example 24, 1-[6-({7-[(2-methanesulfonylphenyl)amino]-2-methyl-3H-imidazo[4,5-b]pyridin-5-yl}amino)pyridin-3-yl]pyrrolidin-2-one]: the IC50 in assay [2] was 1230 nM; in assay [3], 636 nM. In addition, in assay [4], a half-maximal effect (EC50) was put at 15 nM.
`Cc1ccnc(Nc2cc(Nc3ccccc3S(C)(=O)=O)c3nc(C)[nH]c3n2)c1` [Example 20, 7-N-(2-methanesulfonylphenyl)-2-methyl-5-N-(4-methylpyridin-2-yl)-3H-imidazo[4,5-b]pyridine-5,7-diamine]: the IC50 worked out at 407 nM in assay [2] and 401 nM in assay [3]. For the same compound, the half-maximal effective concentration (EC50) in assay [4] was determined as 53 nM.
Take `COc1ccccc1Nc1cc(Nc2ccc(F)cn2)nc2[nH]c(C)nc12` [Example 38, 5-N-(5-fluoropyridin-2-yl)-7-N-(2-methoxyphenyl)-2-methyl-3H-imidazo[4,5-b]pyridine-5,7-diamine]: the IC50 in assay [2] was found to be 8070 nM; in assay [3] it was 5180 nM. Moreover, the half-maximal effective concentration (EC50) in assay [4] stood at 509 nM.
Taken in the same sequence, the figures for `COc1c(Nc2cc(NC(=O)C3CC3)nc3[nH]c(C)nc23)cccc1-c1ncn(C)n1` [Example 39, N-(7-{[2-methoxy-3-(1-methyl-1H-1,2,4-triazol-3-yl)phenyl]amino}-2-methyl-3H-imidazo[4,5-b]pyridin-5-yl)cyclopropanecarboxamide] were 3010 nM, 2720 nM and 17 nM.
For `Cc1nc2c(Nc3ccccc3S(C)(=O)=O)cc(Nc3cc(C)n(C)n3)nc2[nH]1` [Example 26, 5-N-(1,5-dimethyl-1H-pyrazol-3-yl)-7-N-(2-methanesulfonylphenyl)-2-methyl-3H-imidazo[4,5-b]pyridine-5,7-diamine], the IC50 was 140 nM in assay [2] and 119 nM in assay [3]. This compound also displayed a concentration for a half-maximal effect (EC50) in assay [4] of 15 nM.
In the same order, the values of `Cc1nc2c(Nc3ccccc3C(N)=O)cc(Nc3ccc(F)cn3)nc2[nH]1` [Example 32, 2-({5-[(5-fluoropyridin-2-yl)amino]-2-methyl-3H-imidazo[4,5-b]pyridin-7-yl}amino)benzamide] are 3310 nM, 1160 nM and 167 nM.
In the same order, the values of `Cc1nc2c(Nc3ccccc3S(C)(=O)=O)cc(Nc3cc(C#N)ccn3)nc2[nH]1` [Example 3, 2-({7-[(2-methanesulfonylphenyl)amino]-2-methyl-3H-imidazo[4,5-b]pyridin-5-yl}amino)pyridine-4-carbonitrile] are 275 nM, 190 nM and 12 nM.
For the compound `Cc1nc2c(Nc3ccccc3S(C)(=O)=O)cc(Nc3cc(C)c(C#N)c(C)n3)nc2[nH]1` [Example 28, 6-({7-[(2-methanesulfonylphenyl)amino]-2-methyl-3H-imidazo[4,5-b]pyridin-5-yl}amino)-2,4-dimethylpyridine-3-carbonitrile], the half-maximal inhibitory concentration (IC50) was determined as 70 nM in assay [2] and 53 nM in assay [3]. This compound returned an EC50 in assay [4] of 9 nM.
`Cc1nc2c(Nc3ccccc3S(C)(=O)=O)cc(Nc3ccc(C(N)=O)cn3)nc2[nH]1` [Example 14, 6-({7-[(2-methanesulfonylphenyl)amino]-2-methyl-3H-imidazo[4,5-b]pyridin-5-yl}amino)pyridine-3-carboxamide]: the concentration for half-maximal inhibition (IC50) in assay [2] was determined as 7860 nM; in assay [3], 6080 nM. This compound yielded a half-maximal effective concentration (EC50) in assay [4] of 11 nM.
